The values below come from patent publication US11771737B2, “Treating or preventing adverse liver conditions” (priority 2017, dated 2023).

In one experiment the test system is hepatic NKT cells. Kind of experiment: In vivo bile acids feeding, hepatic NKT cell levels. The following applies: ABX-administered mice, oral gavage 6 mg/15 g body weight at 48, 24 and 16 hrs.
Another experiment relates to A20 tumor cells. Description: Tail vein A20 tumor cell injection, liver metastasis. It counts as in vivo, BALB/c mice. The following applies: A20 tumor-bearing antibiotic (vancomycin)-administered mice, ω-MCA feeding. From the text:
Liver metastases were counted three weeks after injection. Cumulative data are shown. n=8, p<0.05, Student's t-test.
FIG. 7B is a dot plot showing liver weight of liver sections in mice that received tail vein injection of A20 tumor cells. n=4, p<0.05, Student's t-test.
(§1) B16-F1 and A20 cells were purchased from ATCC (Manassas, Va., USA). EL4 cells were used as described (Ma et al., J. Leukoc. Biol., 92: 1199-1206 (2012), incorporated by reference herein). 1×10^6 EL4 tumor cells were given by subcutaneous (s.c.) or tail vein injection, 3×10^5 B16-F1 tumor cells were given by intrasplenic injection as described before (Eggert et al., Cancer Cell, 30: 533-547 (2016), incorporated by reference herein), and 1×10^6 A20 tumor cells were given by tail vein injection.
Mice were kept on ABX cocktail and fresh ABX was replaced every other day. Mice were fed with bile acids by oral gavage 48, 24 and 16 hrs prior to sacrifice. For A20 tumor bearing mice, ω-MCA were given 3 times/week. ω-MCA and CDCA were dissolved in corn oil and given at the dose of 6 mg/15 g body weight.
A20 tumor cells were i.v. injected into vancomycin-(Vanco) or H2O-administered BALB/c mice. ω-MCA (5 mg/mouse) was given by oral gavage three times/week. aCD4 antibody (GK1.5) was given i.p. at the dose of 500 μg/mouse weekly to deplete […] cells. FIGS. 30A and 30B show the results after 3 weeks.

In another experiment the test system is EL4 tumor cells. Kind of experiment: Tail vein EL4 tumor cell injection, liver tumors in wild-type, CXCR6 and CD1d knockout mice. It counts as in vivo. The following applies: ABX-administered CXCR6−/− mice.
Text: Measurements were taken 3 weeks after injection. Cumulative data are shown. n=10 for Wt-H2O, 7 for Wt-ABX, 4 for CXCR6^−/−-H2O, 5 for CXCR6^−/−-ABX, 5 for CD1d^−/−-H2O, 4 for CD1d^−/−-ABX. p<0.05, two-way ANOVA.
as §1
NKT cells are known to have anti-tumor function and can directly kill CD1d expressing tumors. All three tested tumor models (B16, EL4 and A20) expressed […] at different levels (FIG. 22). To investigate the role of NKT cells in this setting, CD1d knockout and CXCR6 knockout mice were used. CD1d knockout mice completely lack NKT cells, while CXCR6 knockout mice have a selective NKT deficiency in the liver. Loss of hepatic NKT cells in these mice was confirmed (FIG. 23). […]
EL4 tumor cells were injected into ABX-pre-administered CXCR6^−/− mice. ω-MCA was given as described above. Liver surface tumors were counted three weeks after tumor injection.

The next experiment relates to CXCL16. Description: CXCL16 mRNA in primary murine LSECs administered bile acids. It is filed as cell-based, mice. The following applies: primary murine LSECs in vitro, 24 hours. From the text: FIG. 28E is a dot plot showing CXCL16 mRNA levels of isolated LSECs administered different bile acids, in accordance with embodiments of the invention. n=5, p<0.05, one-way ANOVA.
FIG. 28F is a dot plot showing CXCL16 mRNA levels of isolated LSECs administered a combination of T-b-MCA with T-w-MCA or ω-MCA. n=5, p<0.05, one-way ANOVA.
Primary mice liver sinusoidal endothelia cells were isolated as previously described (Limmer et al., Nat. Med., 6: 1348-1354 (2000), incorporated by reference herein). Briefly, mice were CO2 euthanized, and then the portal vein was cannulated, and the liver was perfused with 0.05% collagenase in Ca^2+ deprived medium. Liver cells were dissociated, and parenchymal cells were killed by incubation in 0.04% collagenase in Gey's balanced salt solution at 37° C. for 15 minutes. Then density gradient centrifugation was performed using Nycodenz solution at the final solution of 1.089 g/cm^3. Liver sinusoidal endothelial cells (LSEC) were isolated using anti-LSEC microbeads (Miltenyi, Bergisch Gladbach, Germany) according to the manufacturer's instructions. LSECs or the human SK-HEP1 cell line (ATCC, HTB-52) were administered different bile acids for 24 hours. Gene expression was analyzed by real-time PCR. […]

For `C[C@H](CCC(=O)O)[C@H]1CC[C@H]2[C@@H]3[C@@H](O)[C@H](O)[C@@H]4C[C@H](O)CC[C@]4(C)[C@H]3CC[C@]12C` [ω-MCA, ω-muricholic acid], the “hepatic NKT accumulation” value in the experiment on hepatic NKT cells is “effectively reversed hepatic NKT accumulation”. Also, the liver tumor growth result with A20 tumor cells is “reversed the inhibition of liver tumor growth”. Further, the liver tumor development entry with EL4 tumor cells is reported as “failed to affect”. Further, the “cxcl16 mRNA expression” value with CXCL16 is listed as “decreased”.
